# Measurements taken from patent publication US20180228799A1, “Treatment for Neurological and Mental Disorders” (PSYCHOGENICS, INC., priority 2008, published 2018).
# Test system: rats
# Assay: Radial arm maze, scopolamine-induced working memory deficit
# Type: in vivo
# Conditions: scopolamine 0.5 mg/kg IP, FIG. 2
# Method: Several mazes, such as the radial arm maze (RAM) have been adapted to assess working memory in rodents. The RAM consists of eight long runways radiating out in a circle from a central compartment. In the RAM rats learn to retrieve food rewards from all or a sub-set of the arms. Working memory is assessed by measuring entries into previously baited arms within a given trial. […] Hippocampal lesions produce deficits both in adults and in the neonatal hippocampal lesion model of schizophrenia.
# For training, food deprived rats were placed in an enclosed cylinder in the center of the maze for 20 s, prior to being allowed to explore the maze by removing the cylinder. Each radial arm is baited with a food reward. Animals were given a maximum of 5 minutes to retrieve all food rewards. This training continued once daily for three weeks until animals met the performance criteria for successful acquisition of the task.
# Four parameters were recorded to assess the performance of the rat: (1) the number of errors, which is defined as entering an arm that had already been entered, (2) the number of consecutive entries into un-visited arms before the first error occurred (entries to repeat), (3) latency to complete the task, and (4) the total number of arm entries before all food in the eight arms is collected or the maximum session duration is reached. […]
structure (smiles),measurement,value
"CN1[C@@H]2C[C@@H](OC(=O)[C@H](CO)c3ccccc3)C[C@H]1[C@@H]1O[C@@H]12 [scopolamine, reference compound]",Entries to repeat in the radial arm maze compared to baseline,decreased entries to repeat
